Laboratory results reported in PubChem BioAssay (NCI).
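Briefly, cells in 96-well plates were exposed to five compound concentrations for 48 h, and endpoints were estimated by linear interpolation. The concentration for full growth arrest is given as TGI.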

Tests used:
Test in all cases: growth of human tumour cells (NCI), 48 h
HS 578T breast = test system: HS 578T breast
TK-10 renal = test system: TK-10 renal
LOX IMVI melanoma = test system: LOX IMVI melanoma
RPMI-8226 leukemia = test system: RPMI-8226 leukemia
MDA-MB-435 = test system: MDA-MB-435
MOLT-4 leukemia = test system: MOLT-4 leukemia
SF-268 CNS = test system: SF-268 CNS
MALME-3M melanoma = test system: MALME-3M melanoma
HT29 colon = test system: HT29 colon
A549 NSCLC = test system: A549 NSCLC
UACC-62 melanoma = test system: UACC-62 melanoma
HCT-116 colon = test system: HCT-116 colon
NCI/ADR-RES ovarian = test system: NCI/ADR-RES ovarian
OVCAR-5 ovarian = test system: OVCAR-5 ovarian
SK-MEL-28 melanoma = test system: SK-MEL-28 melanoma
NCI-H226 lung = test system: NCI-H226 lung
MCF7 breast = test system: MCF7 breast
SK-OV-3 ovarian = test system: SK-OV-3 ovarian
MDA-MB-231 breast = test system: MDA-MB-231 breast
SW-620 colon = test system: SW-620 colon
ACHN renal = test system: ACHN renal
OVCAR-3 ovarian = test system: OVCAR-3 ovarian
KM12 colon = test system: KM12 colon
COLO 205 colon = test system: COLO 205 colon
NCI-H522 lung = test system: NCI-H522 lung
K-562 leukemia = test system: K-562 leukemia
CCRF-CEM leukemia = test system: CCRF-CEM leukemia
UO-31 renal = test system: UO-31 renal
MDA-N = test system: MDA-N
PC-3 prostate = test system: PC-3 prostate
SNB-19 CNS = test system: SNB-19 CNS
HL-60(TB) leukemia = test system: HL-60(TB) leukemia
A498 renal = test system: A498 renal
SF-295 CNS = test system: SF-295 CNS
SK-MEL-2 melanoma = test system: SK-MEL-2 melanoma
HOP-62 NSCLC = test system: HOP-62 NSCLC
SR leukemia = test system: SR leukemia
786-0 renal = test system: 786-0 renal
SN12C renal = test system: SN12C renal
OVCAR-4 ovarian = test system: OVCAR-4 ovarian
HCT-15 colon = test system: HCT-15 colon
SNB-75 CNS = test system: SNB-75 CNS
BT-549 breast = test system: BT-549 breast
DU-145 prostate = test system: DU-145 prostate
RXF 393 renal = test system: RXF 393 renal
OVCAR-8 ovarian = test system: OVCAR-8 ovarian
M14 melanoma = test system: M14 melanoma
UACC-257 melanoma = test system: UACC-257 melanoma
IGROV1 ovarian = test system: IGROV1 ovarian
U251 CNS = test system: U251 CNS
NCI-H23 lung = test system: NCI-H23 lung
SF-539 CNS = test system: SF-539 CNS
EKVX NSCLC = test system: EKVX NSCLC
NCI-H460 lung = test system: NCI-H460 lung
CAKI-1 renal = test system: CAKI-1 renal
HOP-92 NSCLC = test system: HOP-92 NSCLC
HCC-2998 colon = test system: HCC-2998 colon
SK-MEL-5 melanoma = test system: SK-MEL-5 melanoma

SMILES: CCCNC(=O)c1cc(NC(=O)c2cc(NC(=O)/C=C/c3ccccc3)c(OC)c(OC)c2)c(OC)c(OC)c1
- TGI (HS 578T breast): 6.18 µM
- TGI (TK-10 renal): 40.1 µM
- TGI (LOX IMVI melanoma): 8.35 µM
- TGI (RPMI-8226 leukemia): > 100 µM
- TGI (MDA-MB-435): 66.5 µM
- TGI (MOLT-4 leukemia): > 100 µM
- TGI (SF-268 CNS): 8.68 µM
- TGI (MALME-3M melanoma): 8.74 µM
- TGI (HT29 colon): 66.5 µM
- TGI (A549 NSCLC): 23.9 µM
- TGI (UACC-62 melanoma): 597 nM
- TGI (HCT-116 colon): > 100 µM
- TGI (NCI/ADR-RES ovarian): 56 µM
- TGI (OVCAR-5 ovarian): 57.1 µM
- TGI (SK-MEL-28 melanoma): 67.7 µM
- TGI (NCI-H226 lung): 170 nM
- TGI (MCF7 breast): 28.5 µM
- TGI (SK-OV-3 ovarian): 25.1 µM
- TGI (MDA-MB-231 breast): 6.27 µM
- TGI (SW-620 colon): > 100 µM
- TGI (ACHN renal): 36.8 µM
- TGI (OVCAR-3 ovarian): 17.9 µM
- TGI (KM12 colon): 41.8 µM
- TGI (COLO 205 colon): > 100 µM
- TGI (NCI-H522 lung): 23.1 µM
- TGI (K-562 leukemia): > 100 µM
- TGI (CCRF-CEM leukemia): > 100 µM
- TGI (UO-31 renal): 20.7 µM
- TGI (MDA-N): > 100 µM
- TGI (PC-3 prostate): 33.5 µM
- TGI (SNB-19 CNS): 21.6 µM
- TGI (HL-60(TB) leukemia): > 100 µM
- TGI (A498 renal): 30.8 µM
- TGI (SF-295 CNS): 11.2 µM
- TGI (SK-MEL-2 melanoma): 31.2 µM
- TGI (HOP-62 NSCLC): 19.4 µM
- TGI (SR leukemia): > 100 µM
- TGI (786-0 renal): 18.6 µM
- TGI (SN12C renal): 879 nM
- TGI (OVCAR-4 ovarian): 8.05 µM
- TGI (HCT-15 colon): > 100 µM
- TGI (SNB-75 CNS): 7.76 µM
- TGI (BT-549 breast): 53.4 µM
- TGI (DU-145 prostate): > 100 µM
- TGI (RXF 393 renal): 8.31 µM
- TGI (OVCAR-8 ovarian): 17 µM
- TGI (M14 melanoma): > 100 µM
- TGI (UACC-257 melanoma): 52.2 µM
- TGI (IGROV1 ovarian): 31.7 µM
- TGI (U251 CNS): 13.9 µM
- TGI (NCI-H23 lung): > 100 µM
- TGI (SF-539 CNS): 20.4 µM
- TGI (EKVX NSCLC): 54.1 µM
- TGI (NCI-H460 lung): 82.5 µM

SMILES: O=[N+]([O-])c1ccc(-c2csc3nc(-c4ccccc4)nn23)cc1
- TGI (CAKI-1 renal): > 100 µM
- TGI (HS 578T breast): > 100 µM
- TGI (TK-10 renal): > 100 µM
- TGI (LOX IMVI melanoma): > 100 µM
- TGI (RPMI-8226 leukemia): > 100 µM
- TGI (MDA-MB-435): > 100 µM
- TGI (MOLT-4 leukemia): > 100 µM
- TGI (SF-268 CNS): > 100 µM
- TGI (MALME-3M melanoma): > 100 µM
- TGI (HT29 colon): > 100 µM
- TGI (A549 NSCLC): > 100 µM
- TGI (UACC-62 melanoma): > 100000 nM
- TGI (HOP-92 NSCLC): > 100 µM
- TGI (HCT-116 colon): > 100 µM
- TGI (NCI/ADR-RES ovarian): > 100 µM
- TGI (OVCAR-5 ovarian): > 100 µM
- TGI (SK-MEL-28 melanoma): > 100 µM
- TGI (NCI-H226 lung): > 100000 nM
- TGI (MCF7 breast): > 100 µM
- TGI (SK-OV-3 ovarian): > 100 µM
- TGI (MDA-MB-231 breast): > 100 µM
- TGI (SW-620 colon): > 100 µM
- TGI (ACHN renal): > 100 µM
- TGI (OVCAR-3 ovarian): > 100 µM
- TGI (KM12 colon): > 100 µM
- TGI (COLO 205 colon): > 100 µM
- TGI (NCI-H522 lung): > 100 µM
- TGI (K-562 leukemia): > 100 µM
- TGI (CCRF-CEM leukemia): > 100 µM
- TGI (UO-31 renal): > 100 µM
- TGI (MDA-N): > 100 µM
- TGI (PC-3 prostate): > 100 µM
- TGI (SNB-19 CNS): > 100 µM
- TGI (HL-60(TB) leukemia): > 100 µM
- TGI (HCC-2998 colon): > 100 µM
- TGI (A498 renal): > 100 µM
- TGI (SK-MEL-5 melanoma): > 100 µM
- TGI (SF-295 CNS): > 100 µM
- TGI (SK-MEL-2 melanoma): > 100 µM
- TGI (HOP-62 NSCLC): > 100 µM
- TGI (SR leukemia): > 100 µM
- TGI (786-0 renal): > 100 µM
- TGI (SN12C renal): > 100000 nM
- TGI (OVCAR-4 ovarian): > 100 µM
- TGI (HCT-15 colon): > 100 µM
- TGI (SNB-75 CNS): > 100 µM
- TGI (BT-549 breast): > 100 µM
- TGI (DU-145 prostate): > 100 µM
- TGI (RXF 393 renal): > 100 µM
- TGI (OVCAR-8 ovarian): > 100 µM
- TGI (M14 melanoma): > 100 µM
- TGI (UACC-257 melanoma): > 100 µM
- TGI (IGROV1 ovarian): > 100 µM
- TGI (U251 CNS): > 100 µM
- TGI (NCI-H23 lung): > 100 µM
- TGI (EKVX NSCLC): > 100 µM
